Experimental data published in patent US20110098322A1, “PREPARATION OF NOVEL 1,3-S[…] AS INHIBITORS OF SOLUBLE EPOXIDE HYDROLASE” (priority 2007, published 2011).

Molecular target: T1, Recombinant human sEH (Homo sapiens, UniProt P34913)
T1 construct: made in house
T1 sequence (P34913 1-555): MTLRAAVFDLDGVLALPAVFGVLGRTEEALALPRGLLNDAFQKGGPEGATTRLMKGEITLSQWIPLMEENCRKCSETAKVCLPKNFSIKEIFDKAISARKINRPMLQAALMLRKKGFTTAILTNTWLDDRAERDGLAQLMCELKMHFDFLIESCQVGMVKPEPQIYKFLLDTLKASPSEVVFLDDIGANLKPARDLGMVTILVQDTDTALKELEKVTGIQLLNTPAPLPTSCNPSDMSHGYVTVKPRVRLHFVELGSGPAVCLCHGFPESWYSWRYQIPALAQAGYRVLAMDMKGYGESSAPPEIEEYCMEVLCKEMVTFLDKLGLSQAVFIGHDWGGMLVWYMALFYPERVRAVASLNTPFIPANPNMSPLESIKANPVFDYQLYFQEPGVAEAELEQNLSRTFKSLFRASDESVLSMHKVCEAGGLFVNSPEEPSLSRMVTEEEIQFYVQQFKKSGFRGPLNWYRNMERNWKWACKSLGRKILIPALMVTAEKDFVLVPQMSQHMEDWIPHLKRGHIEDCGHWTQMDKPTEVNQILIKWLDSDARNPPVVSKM
Experiment: Inhibition of human soluble epoxide hydrolase (IC50 assay)
Type: biochemical
Excerpt: This example provides assays and illustrates the inhibition of human soluble epoxide hydrolases by compounds of the invention.
Recombinant human sEH was produced in a baculovirus expression system and purified by affinity chromatography. The preparations were at least 97% pure as judged by SDS-PAGE and scanning densitometry. No detectable esterase or glutathione transferase activity, which can interfere with this sEH assay, was observed. Protein concentration was quantified by using the Pierce BCA assay using Fraction V bovine serum albumin as the calibrating standard.
IC50 values were determined in one of three methods. One method uses racemic 4-nitrophenyl-trans-2,3-epoxy-3-phenylpropyl carbonate as substrate. Enzyme (0.24 μM human sEH) was incubated with inhibitors for 5 min in sodium phosphate buffer, 0.1 M pH 7.4, at 30° C. before substrate introduction([S]=40 μM). Activity was assessed by measuring the appearance of the 4-nitrophenolate anion at 405 nm at 30° C. during 1 min (Spectramax 200; Molecular Devices). Assays were performed in triplicate. 1050 is a concentration of inhibitor, which reduces enzyme activity by 50%, and was determined by regression of at least five datum points with a minimum of two points in the linear region of the curve on either side of the IC50. The curve was generated from at least three separate runs, each in triplicate.
Other IC50 values were determined using the procedure described in Analytical
Biochemistry 343 66-75 (2005) using cyano(6-methoxy-naphthalen-2-yl)methyl trans-[(3-phenyloxiran-2-yl)methyl]carbonate as a substrate. Enzymes (0.96 nM for human sEH) were incubated with inhibitors ([I]=0.5-10,000 nM) for 5 min in BisTris-HCl buffer (25 mM, pH 7.0, containing 0.1 mg/ml of BSA) at 30° C. prior to substrate introduction ([S]=5 µM). Enzyme activity was measured by monitoring the appearance of 6-methoxy-2-naphthaldehyde. Assays were performed in triplicate. By definition, IC50 values are concentrations of inhibitor that reduce enzyme activity by 50%. IC50 values were determined by regression of at least five datum points, with a minimum of two datum points in the linear region of the curve on either side of the IC50 values. The curve was generated from at least three separate runs, each in triplicate.
Other inhibition potencies were determined using a fluorescent based high-throughput assay. Inhibitors in solution at 10 mM in DMSO were serially diluted by 10-fold increment in Bis/Tris HCl buffer (25 mM pH 7.0) containing 0.1 mg/mL of BSA (Buffer A). In black 96-well plates, 20 µL of the inhibitor dilution or buffer were delivered in every well, and then 130 μL of Human sEH at ˜0.4 μg/mL in solution in Buffer A were added to each well. The plate was then mixed and incubated at room temperature for 5 minutes. Fifty microliters of substrate ((3-Phenyl-oxiranyl)-acetic acid cyano-(6-methoxy-naphthalen-2-yl)-methyl ester; PHOME) at 200 μM in solution in 96:4 Buffer A:DMSO was then added to each well to give [S]final=50 μM and [E]final=˜4 nM. The plate was then mixed and incubated in the dark at room temperature (˜25° C.) for 90 min. Activity was measured by determining the relative quantity of 6-methoxy-2-naphthaldehyde formed with an excitation wavelength of 316 nm and an emission wavelength of 460 nm measured with a SpectraMax M-2 fluorometer (molecular Devices, Sunnyvale, Calif.).
Assays were conducted with the compounds indicated in the table below, as described above.

| Structure (SMILES) | IC50 |
| --- | --- |
| CC(C)c1cccc(C(C)(C)NC(=O)N[C@H]2CC[C@H](Oc3ccc(C(=O)O)cc3)CC2)c1 [Compound 1956] | 3.9 nM |
| CC(C)c1cccc(C(C)(C)NC(=O)NCCCCc2ccccc2)c1 [Compound 1805] | 11.5 nM |
| CC(C)c1cccc(C(C)(C)NC(=O)N[C@H]2CC[C@H](Oc3ccc(C#N)cc3)CC2)c1 [Compound 1908, trans-1-[4-(4-Cyano-phenoxy)-cyclohexyl]-3-[1-(3-isopropyl-phenyl)-1-methyl-ethyl]-urea] | 9.8 nM |
| CC(=O)N1CCC(NC(=O)NC(C)(C)c2cccc(C(C)C)c2)CC1 [Compound 2064] | 444 nM |
| CCCCCCCCCCCCNC(=O)NC(C)(C)c1cccc(C(C)C)c1 [Compound 1715] | 10.9 nM |
| CC(C)c1cccc(C(C)(C)NC(=O)NCCCCCCCCCCCC(=O)O)c1 [Compound 1808] | 52.5 nM |
| CC(C)c1cccc(C(C)(C)NC(=O)NCC2CCN(C(=O)OC(C)(C)C)CC2)c1 [Compound 1806] | 5.6 nM |
| CC(C)c1cccc(C(C)(C)NC(=O)NC2CCCCC2)c1 [Compound 1713, 1-cyclohexyl-3-(2-(3-isopropylphenyl)propan-2-yl)urea] | 7.5 nM |
| CCOC(=O)c1cccc(NC(=O)NC(C)(C)c2cccc(C(C)C)c2)c1 [Compound 1717] | 158 nM |
| CC(C)c1cccc(C(C)(C)NC(=O)NC2CCC(O)CC2)c1 (stereo not drawn) [Compound 1892] | 393 nM |
| C=C(C)c1cccc(C(C)(C)NC(=O)NC2CCCCC2)c1 [Compound 1520] | 11.4 nM |
| CC(C)c1cccc(C(C)(C)NC(=O)NCc2ccc(Oc3ccccc3)cc2)c1 [Compound 1955] | 10.6 nM |
| CC(C)c1cccc(C(C)(C)NC(=O)NC2CCN(C(=O)OC(C)(C)C)CC2)c1 [Compound 1868] | 21.6 nM |
| C=C(C)c1cccc(C(C)(C)NC(=O)N[C@H]2CC[C@H](O)CC2)c1 [Compound 1887, trans-1-(4-Hydroxy-cyclohexyl)-3-[1-(3-isopropenyl)-1-methyl-ethyl]-urea] | 76.7 nM |
| CC(C)c1cccc(C(C)(C)NC(=O)NC2CCN(S(C)(=O)=O)CC2)c1 [Compound 2048] | 97.6 nM |
| CC(C)c1cccc(C(C)(C)NC(=O)NC2CCC(C(=O)O)CC2)c1 (stereo not drawn) [Compound 1852] | 555 nM |
| CC(C)c1cccc(C(C)(C)NC(=O)Nc2cccc(C(=O)O)c2)c1 [Compound 1719] | 1610 nM |
| C=C(C)c1cccc(C(C)(C)NC(=O)Nc2cccc(C(=O)OCC)c2)c1 [Compound 1716] | 41.3 nM |
| C=C(C)c1cccc(C(C)(C)NC(=O)Nc2cccc(C(=O)O)c2)c1 [Compound 1718] | 7920 nM |
| CC(C)c1cccc(C(C)(C)NC(=O)NCCc2ccc(C(=O)O)cc2)c1 [Compound 1807] | 2890 nM |
| C=C(C)c1cccc(C(C)(C)NC(=O)NCCCCCCCCCCCC)c1 [Compound 1714] | 33 nM |
